{"source": "the supplement of paper PMC10307832", "experiment_in_all_cases": "relative viability (nuclei count vs DMSO), 5 days (fraction); higher = more cells survive", "key": {"NCI-H2023": {"test_system": "NCI-H2023", "procedure,_shortened": "(§1)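 The day after seeding in 1536-well plates, lung cancer cell lines were treated by pin tool with a single drug, or with a fixed anchor-drug dose together with five library-drug doses (not always all listed) in √10 steps. After 5 days, a combined fix-and-stain solution (final 0.05% Triton X-100, 1% formaldehyde, 1 ug/ml Hoechst) was added. Nuclei counted on 4× images gave relative viability as treated counts over vehicle counts, reported as the median of duplicate plates.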"}, "ChaGo-K-1": {"test_system": "ChaGo-K-1", "procedure,_shortened": "as §1"}, "NCI-H1944": {"test_system": "NCI-H1944", "procedure,_shortened": "as §1"}, "LC-2-ad": {"test_system": "LC-2-ad", "procedure,_shortened": "as §1"}, "NCI-H23": {"test_system": "NCI-H23", "procedure,_shortened": "as §1"}, "HARA": {"test_system": "HARA", "procedure,_shortened": "as §1"}, "NCI-H1793": {"test_system": "NCI-H1793", "procedure,_shortened": "as §1"}, "NCI-H2126": {"test_system": "NCI-H2126", "procedure,_shortened": "as §1"}, "NCI-H2228": {"test_system": "NCI-H2228", "procedure,_shortened": "as §1"}, "NCI-H1993": {"test_system": "NCI-H1993", "procedure,_shortened": "as §1"}, "SK-LU-1": {"test_system": "SK-LU-1", "procedure,_shortened": "as §1"}, "HCC-15": {"test_system": "HCC-15", "procedure,_shortened": "as §1"}, "COR-L23": {"test_system": "COR-L23", "procedure,_shortened": "as §1"}, "HOP-62": {"test_system": "HOP-62", "procedure,_shortened": "as §1"}, "NCI-H1395": {"test_system": "NCI-H1395", "procedure,_shortened": "as §1"}, "HCC-366": {"test_system": "HCC-366", "procedure,_shortened": "as §1"}, "NCI-H2405": {"test_system": "NCI-H2405", "procedure,_shortened": "as §1"}, "NCI-H838": {"test_system": "NCI-H838", "procedure,_shortened": "as §1"}, "EMC-BAC-2": {"test_system": "EMC-BAC-2", "procedure,_shortened": "as §1"}, "ABC-1": {"test_system": "ABC-1", "procedure,_shortened": "as §1"}, "HCC-78": {"test_system": "HCC-78", "procedure,_shortened": "as §1"}, "NCI-H358": {"test_system": "NCI-H358", "procedure,_shortened": "as §1"}}}
{"smiles": "COc1nc(C)cnc1NS(=O)(=O)c1cccnc1-c1ccc(-c2nnco2)cc1", "note": "[Zibotentan] + O=C(c1cc(Cc2n[nH]c(=O)c3ccccc23)ccc1F)N1CCN(C(=O)C2CC2)CC1 [Olaparib] (partner 8 µM)", "values": [{"measurement": "relative viability", "setting": "NCI-H2023; first compound 0.08 µM", "result": 0.438}, {"measurement": "relative viability", "setting": "NCI-H2023; first compound 0.253 µM", "result": 0.415}, {"measurement": "relative viability", "setting": "NCI-H2023; first compound 0.8 µM", "result": 0.516}, {"measurement": "relative viability", "setting": "NCI-H2023; first compound 2.53 µM", "result": 0.469}, {"measurement": "relative viability", "setting": "ChaGo-K-1; first compound 0.08 µM", "result": 0.393}, {"measurement": "relative viability", "setting": "ChaGo-K-1; first compound 0.253 µM", "result": 0.396}, {"measurement": "relative viability", "setting": "ChaGo-K-1; first compound 0.8 µM", "result": 0.322}, {"measurement": "relative viability", "setting": "ChaGo-K-1; first compound 2.53 µM", "result": 0.393}, {"measurement": "relative viability", "setting": "NCI-H1944; first compound 0.08 µM", "result": 0.417}, {"measurement": "relative viability", "setting": "NCI-H1944; first compound 0.253 µM", "result": 0.369}, {"measurement": "relative viability", "setting": "NCI-H1944; first compound 0.8 µM", "result": 0.392}, {"measurement": "relative viability", "setting": "NCI-H1944; first compound 2.53 µM", "result": 0.406}, {"measurement": "relative viability", "setting": "LC-2-ad; first compound 0.08 µM", "result": 0.68}, {"measurement": "relative viability", "setting": "LC-2-ad; first compound 0.253 µM", "result": 0.682}, {"measurement": "relative viability", "setting": "LC-2-ad; first compound 0.8 µM", "result": 0.721}, {"measurement": "relative viability", "setting": "LC-2-ad; first compound 2.53 µM", "result": 0.71}, {"measurement": "relative viability", "setting": "NCI-H23; first compound 0.08 µM", "result": 0.266}, {"measurement": "relative viability", "setting": "NCI-H23; first compound 0.253 µM", "result": 0.235}, {"measurement": "relative viability", "setting": "NCI-H23; first compound 0.8 µM", "result": 0.242}, {"measurement": "relative viability", "setting": "NCI-H23; first compound 2.53 µM", "result": 0.251}, {"measurement": "relative viability", "setting": "HARA; first compound 0.08 µM", "result": 0.856}, {"measurement": "relative viability", "setting": "HARA; first compound 0.8 µM", "result": 0.455}, {"measurement": "relative viability", "setting": "HARA; first compound 2.53 µM", "result": 0.883}, {"measurement": "relative viability", "setting": "NCI-H1793; first compound 0.08 µM", "result": 0.998}, {"measurement": "relative viability", "setting": "NCI-H1793; first compound 0.253 µM", "result": 0.835}, {"measurement": "relative viability", "setting": "NCI-H1793; first compound 0.8 µM", "result": 0.796}, {"measurement": "relative viability", "setting": "NCI-H1793; first compound 2.53 µM", "result": 0.957}, {"measurement": "relative viability", "setting": "NCI-H2126; first compound 0.08 µM", "result": 0.945}, {"measurement": "relative viability", "setting": "NCI-H2126; first compound 0.253 µM", "result": 0.942}, {"measurement": "relative viability", "setting": "NCI-H2126; first compound 0.8 µM", "result": 0.89}, {"measurement": "relative viability", "setting": "NCI-H2126; first compound 2.53 µM", "result": 0.951}, {"measurement": "relative viability", "setting": "NCI-H2228; first compound 0.08 µM", "result": 0.658}, {"measurement": "relative viability", "setting": "NCI-H2228; first compound 0.253 µM", "result": 0.573}, {"measurement": "relative viability", "setting": "NCI-H2228; first compound 0.8 µM", "result": 0.863}, {"measurement": "relative viability", "setting": "NCI-H2228; first compound 2.53 µM", "result": 0.924}, {"measurement": "relative viability", "setting": "NCI-H1993; first compound 0.08 µM", "result": 1.01}, {"measurement": "relative viability", "setting": "NCI-H1993; first compound 0.253 µM", "result": 0.842}, {"measurement": "relative viability", "setting": "NCI-H1993; first compound 0.8 µM", "result": 0.853}, {"measurement": "relative viability", "setting": "NCI-H1993; first compound 2.53 µM", "result": 1.08}, {"measurement": "relative viability", "setting": "SK-LU-1; first compound 0.08 µM", "result": 0.507}, {"measurement": "relative viability", "setting": "SK-LU-1; first compound 0.253 µM", "result": 0.477}, {"measurement": "relative viability", "setting": "SK-LU-1; first compound 0.8 µM", "result": 0.579}, {"measurement": "relative viability", "setting": "SK-LU-1; first compound 2.53 µM", "result": 0.615}, {"measurement": "relative viability", "setting": "HCC-15; first compound 0.08 µM", "result": 0.717}, {"measurement": "relative viability", "setting": "HCC-15; first compound 0.253 µM", "result": 0.703}, {"measurement": "relative viability", "setting": "HCC-15; first compound 0.8 µM", "result": 0.774}, {"measurement": "relative viability", "setting": "HCC-15; first compound 2.53 µM", "result": 0.649}, {"measurement": "relative viability", "setting": "COR-L23; first compound 0.08 µM", "result": 0.324}, {"measurement": "relative viability", "setting": "COR-L23; first compound 0.253 µM", "result": 0.284}, {"measurement": "relative viability", "setting": "COR-L23; first compound 0.8 µM", "result": 0.395}, {"measurement": "relative viability", "setting": "COR-L23; first compound 2.53 µM", "result": 0.352}, {"measurement": "relative viability", "setting": "HOP-62; first compound 0.08 µM", "result": 0.429}, {"measurement": "relative viability", "setting": "HOP-62; first compound 0.253 µM", "result": 0.34}, {"measurement": "relative viability", "setting": "HOP-62; first compound 0.8 µM", "result": 0.503}, {"measurement": "relative viability", "setting": "HOP-62; first compound 2.53 µM", "result": 0.502}, {"measurement": "relative viability", "setting": "NCI-H1395; first compound 0.08 µM", "result": 0.401}, {"measurement": "relative viability", "setting": "NCI-H1395; first compound 0.253 µM", "result": 0.486}, {"measurement": "relative viability", "setting": "NCI-H1395; first compound 0.8 µM", "result": 0.436}, {"measurement": "relative viability", "setting": "NCI-H1395; first compound 2.53 µM", "result": 0.495}, {"measurement": "relative viability", "setting": "HCC-366; first compound 0.08 µM", "result": 0.396}, {"measurement": "relative viability", "setting": "HCC-366; first compound 0.253 µM", "result": 0.34}, {"measurement": "relative viability", "setting": "HCC-366; first compound 0.8 µM", "result": 0.342}, {"measurement": "relative viability", "setting": "HCC-366; first compound 2.53 µM", "result": 0.365}, {"measurement": "relative viability", "setting": "NCI-H2405; first compound 0.08 µM", "result": 0.878}, {"measurement": "relative viability", "setting": "NCI-H2405; first compound 0.253 µM", "result": 0.843}, {"measurement": "relative viability", "setting": "NCI-H2405; first compound 0.8 µM", "result": 0.915}, {"measurement": "relative viability", "setting": "NCI-H2405; first compound 2.53 µM", "result": 0.892}, {"measurement": "relative viability", "setting": "NCI-H838; first compound 0.08 µM", "result": 0.756}, {"measurement": "relative viability", "setting": "NCI-H838; first compound 0.253 µM", "result": 0.747}, {"measurement": "relative viability", "setting": "NCI-H838; first compound 0.8 µM", "result": 0.827}, {"measurement": "relative viability", "setting": "NCI-H838; first compound 2.53 µM", "result": 0.849}, {"measurement": "relative viability", "setting": "EMC-BAC-2; first compound 0.08 µM", "result": 0.519}, {"measurement": "relative viability", "setting": "EMC-BAC-2; first compound 0.8 µM", "result": 0.562}, {"measurement": "relative viability", "setting": "EMC-BAC-2; first compound 2.53 µM", "result": 0.461}, {"measurement": "relative viability", "setting": "ABC-1; first compound 0.08 µM", "result": 1}, {"measurement": "relative viability", "setting": "ABC-1; first compound 0.253 µM", "result": 0.527}, {"measurement": "relative viability", "setting": "ABC-1; first compound 0.8 µM", "result": 0.8}, {"measurement": "relative viability", "setting": "ABC-1; first compound 2.53 µM", "result": 0.819}, {"measurement": "relative viability", "setting": "HCC-78; first compound 0.08 µM", "result": 0.949}, {"measurement": "relative viability", "setting": "HCC-78; first compound 0.253 µM", "result": 0.748}, {"measurement": "relative viability", "setting": "HCC-78; first compound 0.8 µM", "result": 0.719}, {"measurement": "relative viability", "setting": "HCC-78; first compound 2.53 µM", "result": 0.736}, {"measurement": "relative viability", "setting": "NCI-H358; first compound 0.08 µM", "result": 0.735}, {"measurement": "relative viability", "setting": "NCI-H358; first compound 0.253 µM", "result": 0.323}, {"measurement": "relative viability", "setting": "NCI-H358; first compound 2.53 µM", "result": 0.689}]}
